Earlier results, collected in publication PMC6851657 (Clinical Pharmacology and Therapeutics, 2019).

Settings: ref fluconazole SimCYP compound file V16; cited from earlier work

With `OC(Cn1cncn1)(Cn1cncn1)c1ccc(F)cc1F` [Fluconazole, fluconazole] as the molecule, how does the “CL following i.v. administration” value read?
Its value is 1.01 L/h.

And the “In vivo renal clearance in a 20–30 year healthy man” value?
The value was 0.7 L/h.

And the “Volume of distribution at steady state” value?
The value was 0.748 L/kg.
